Data reported in US20220017971A1, “COMPOSITION FOR PREDICTING CHEMOTHERAPY RESISTANCE OF OVARIAN CANCER AND USE THEREOF” (KOOKMIN UNIVERSITY INDUSTRY ACADEMY COOPERATION FOUNDATION, priority 2020, published 2022).

Experiments:
Type in all cases: cell-based
[1] = system: PCNA; assay: PCNA expression (qPCR, immunofluorescence), ES2; settings: ES2 cells; for PCNA expression: anticancer drug alone; for PCNA expression reduced by cisplatin: combined treatment with cisplatin
Description: (§1) cDNA was synthesized from 1 μg of RNA using AccuPower RT PreMix (Bioneer, Daejeon, Korea). Gene expression was measured using SYBR Green (Sigma) and the StepOnePlus Real-Time PCR system (Applied Biosystems, Foster City, Calif.). PCR conditions were incubated at 95° C. for 3 minutes, then 95° C. 30 seconds, 60° C. 30 seconds, and 72° C. 3 minutes conditions were amplified 40 times, and normalized based on the GAPDH expression level.
(§2) Transfected epithelial ovarian cancer cells were fixed with methanol for 10 minutes and treated with PCNA antibody diluted in 1:100. After that, after washing twice with PBS containing 0.1% bovine serum albumin (BSA), the secondary antibody goat anti-mouse IgG Alexa 488 (catalog number: A11017, Invitrogen, Carlsbad, Calif.) was added to antibody dilution buffer so as to be diluted in 1:200 and incubated for 1 hour at room temperature.
(§3) After washing the cells with 0.1% BSA-PBS, DAPI staining was additionally performed to allow simultaneous observation of the target protein as well as the nucleus. After finishing the experiment, cells were observed and photographed using an LSM710 (Carl Zeiss, Thornwood, N.Y., USA) confocal microscope.

[2] = system: OV90 cells; assay: Cell proliferation capacity using BrdU, OV90; settings: for proliferative capability (BrdU incorporation): agent alone; for proliferative capability reduced by cisplatin (BrdU): combined treatment with cisplatin; for proliferative capability reduced by paclitaxel (BrdU): combined treatment with paclitaxel
Description: (§4) Epithelial ovarian cancer OV90 and ES2 cells were cultured in 6 wells, and a non-specific control and target oligonucleotide were transfected using Lipofectamine 2000 (Invitrogen). All oligonucelotides were synthesized by to Bioneer. Oligonucleotide and Lipofectamine 2000 were diluted in Opti-MEM reduced serum medium (Gibco, Cat No: 32985070) and then treated with cells. After 6 h of incubation at 37° C. in a 5% CO2 incubator, the medium was replaced with a medium containing FBS.
(§5) An experiment was performed according to the manufacturer's manual using the BrdU kit (Cat No: 1167229001, Roche) to confirm the change in the proliferation ability of epithelial ovarian cancer cells. After 48 hours of incubation, 10 μM BrdU was additionally added to each well and incubated for 2 hours at 37° C./5% CO2 in an incubator. After labeling the epithelial ovarian cancer cells with BrdU and fixing the cells, they were incubated with anti-BrdU-POD solution at room temperature for 90 minutes, and then washed three times. Finally, the cells were reacted with 100 μl of 3,3′, 5,5′-tetramethylbenzidine substrate, and the cell proliferation ability was analyzed by measuring the absorbance at 370 nm and 492 nm using an ELISA reader.

[3] = system: ES2 cells; assay: Cell proliferation capacity using BrdU, ES2; settings: for proliferative capability (BrdU incorporation): agent alone; for proliferative capability reduced by cisplatin (BrdU): combined treatment with cisplatin; for proliferative capability reduced by paclitaxel (BrdU): combined treatment with paclitaxel
Description: as §4, §5

[4] = system: PCNA; assay: PCNA expression (qPCR, immunofluorescence), OV90; settings: OV90 cells; for PCNA expression: anticancer drug alone; for PCNA expression reduced by cisplatin: combined treatment with cisplatin
Description: as §1, §2, §3

[5] = system: OV90 cells; assay: Apoptosis by annexin V and propidium iodide staining, OV90
Description: (§6) In order to confirm the change in the apoptosis effect of epithelial ovarian cancer cells, an experiment was performed using the FITC Annexin V cell death diagnostic kit I (BD Biosciences). Using trypsin, the cells were removed from the culture dish, washed with PBS, and the cells were slowly mixed using 1 mL of 1× binding buffer and then centrifuged to obtain a cell pellet.
(§7) Next, the cells were suspended and cultured with 200 μL of 1× binding buffer, put into 100 μL of a brown 1.5 mL tube, and cells were mixed with 5 μL of Annexin V and 5 μL of PI, and then stained at room temperature for 15 minutes. After that, 400 μL of 1×binding buffer was added and the stained solution was transferred to a 5 mL FACS tube, and then the fluorescence intensity was analyzed using a flow cytometer to measure the number of apoptotic cells.

[6] = system: ES2 cells; assay: Apoptosis by annexin V and propidium iodide staining, ES2
Description: as §6, §7

[7] = system: LHX6; assay: LHX6 gene expression after oligonucleotide transfection (qPCR), ES2; settings: ES2 cells
Description: as §1, §4
(§8) Next, to analyze whether miR-214-3p can alter the characteristics of epithelial ovarian cancer cells, OV90 and ES2 cells, epithelial ovarian cancer cell lines, were transfected with a mimic for miR-214 and an inhibitor for miR-214-3p (SEQ ID NO: 2: 5′-ACUGCCUGUCUGUGCCUGCUGU-3′).

[8] = system: OV90 cells; assay: Intracellular ROS measurement using DCFH-DA, OV90
Description: (§9) ES2 and OV90 cells were collected through trypsin and centrifuged to obtain a cell pellet. After washing once with PBS, 10 μM of DCFH-DA was incubated in an incubator at 37° C. for 30 minutes. Thereafter, the cells were washed twice with PBS, and a miR-214-3p inhibitor was added thereto and incubated in an incubator at 37° C. for 1 hour. Treated cells were washed again with PBS and analyzed for DCF fluorescence intensity using flow cytometry.

[9] = system: LHX6; assay: LHX6 gene expression after oligonucleotide transfection (qPCR), OV90; settings: OV90 cells
Description: as §1, §4, §8

[10] = system: ES2 cells; assay: Mitochondrial membrane potential by JC-1 staining, ES2
Description: (§10) JC-1 mitochondrial membrane potential (MMP) changes were measured using a mitochondria staining kit (Cat No: CS0390, Sigma-Aldrich). 5×10^5 ES2 and OV90 cells were each aliquoted into 6 wells, and the cells were cultured until 70 to 80% abundance of the culture dish appeared. Thereafter, the miR-214-3p inhibitor was dose-dependently treated and cultured in a 37° C./5% CO2 incubator for 48 hours. Thereafter, cells were collected from the culture dish using trypsin and centrifuged to obtain a cell pellet. Cells were dissolved in JC-1 staining solution and incubated for 20 minutes at 37° C./5% CO2 incubator. The stained cells were centrifuged again, washed with 1×JC-1 staining buffer, and then fluorescence intensity was analyzed using a flow cytometer.

[11] = system: ES2 cells; assay: Intracellular calcium concentration by fluo-4 staining, ES2
Description: (§11) To check the intracellular calcium concentration of ovarian cancer cells, 3 μM of fluo-4 acetoxymethyl ester (AM) (Invitrogen) was used. First, 5×10^5 cells were cultured in 6 wells. Thereafter, the miR-214-3p inhibitor was dose-dependently treated and cultured in a 37° C./5% CO2 incubator for 48 hours. After that, cells were removed from the culture dish using trypsin, washed with PBS, and stained with 3 μM fluo-4 in an incubator at 37° C./5% CO2 for 20 minutes, washed with PBS, and then the stained solution was transferred into a FACS tube and the fluorescence intensity was analyzed using a flow cytometer to […].

[12] = system: ES2 cells; assay: Intracellular ROS measurement using DCFH-DA, ES2
Description: as §9

[13] = system: OV90 cells; assay: Mitochondrial membrane potential by JC-1 staining, OV90
Description: as §10

[14] = system: ES2 cells; assay: Cell cycle analysis using propidium iodide staining, ES2; settings: 48 hours
Description: (§12) In order to confirm the cell cycle change of ovarian cancer cells by the miR-214-3p inhibitor, 5×10^5 cells were cultured in 6 wells until 70 to 80% abundance appeared. Thereafter, miR-214-3p inhibitors were treated in a dose-dependent manner (10, 20, 40 nM) and cultured in a 37° C./5% CO2 incubator for 48 hours. Then, using trypsin, the cells were removed from the culture dish, washed with PBS, and the cells were slowly mixed using 1 mL of 1× binding buffer, and then centrifuged to obtain a cell pellet.
(§13) Next, the cells were suspended and cultured with 200 μL of 1× binding buffer, put in 100 μL in a brown 1.5 mL tube, and 5 μL of RNase and 5 μL of PI were mixed together to stain the cells for 1 hour at room temperature. After that, 400 μL of 1× binding buffer was added, the stained solution was transferred to a 5 mL FACS tube, and the fluorescence intensity was analyzed using a flow cytometer to measure the number of cells corresponding to each cell cycle.

[15] = system: OV90 cells; assay: Intracellular calcium concentration by fluo-4 staining, OV90
Description: as §11

[16] = system: OV90 cells; assay: Cell migration, OV90
[17] = system: ES2 cells; assay: Cell migration, ES2
[18] = system: OV90 cells; assay: Cell cycle analysis using propidium iodide staining, OV90; settings: 48 hours
Description: as §12, §13

[19] = combined treatment with paclitaxel

**Q.** With N.N.[Cl][Pt][Cl] [cisplatin] as the compound, how does the PCNA expression [1] read?
**A.** Its PCNA expression is “significantly reduced”.

**Q.** And the “proliferative capability (BrdU incorporation)” value [2]?
**A.** Its value is “reduced”.

**Q.** And the “proliferative capability (BrdU incorporation)” value [3]?
**A.** The value was “reduced”.

**Q.** What about the PCNA expression [4] of the same compound?
**A.** Its PCNA expression is “significantly reduced”.

**Q.** What does the source list for CC(=O)O[C@H]1C(=O)[C@@]2(C)[C@H]([C@H](OC(=O)c3ccccc3)[C@]3(O)C[C@H](OC(=O)[C@H](O)[C@@H](NC(=O)c4ccccc4)c4ccccc4)C(C)=C1C3(C)C)[C@]1(OC(C)=O)CO[C@@H]1C[C@@H]2O [paclitaxel]?
**A.** PCNA expression [1]: reduced; proliferative capability (BrdU incorporation) [2]: reduced; proliferative capability (BrdU incorporation) [3]: reduced; PCNA expression [4]: reduced

**Q.** Which results are given for “siLHX6: siRNA that inhibits the expression of LHX6 (SEQ ID NO: 3 sense 5′-GAG UCA UCC UUU UUC AGU A-3′, SEQ ID NO: 4 antisense) (sense GAGUCAUCCUUUUUCAGUA; antisense UACUGAAAAAGGAUGACUC; listed as RNA, chemistry not given here)”?
**A.** PCNA expression reduced by cisplatin [1]: restored; mRNA and protein level expression of PCNA ([1]; qPCR and immunofluorescence): significantly increased; increase of proliferative levels ([2]; 40 nM): 1.4 fold; proliferative capability (BrdU incorporation) [2]: significantly increased; proliferative capability reduced by cisplatin (BrdU) [2]: restored; proliferative capability reduced by paclitaxel (BrdU) [2]: restored; increase of proliferative levels ([3]; 40 nM): 1.4 fold; proliferative capability (BrdU incorporation) [3]: significantly increased; proliferative capability reduced by cisplatin (BrdU) [3]: restored; proliferative capability reduced by paclitaxel (BrdU) [3]: restored; PCNA expression reduced by cisplatin [4]: restored; mRNA and protein level expression of PCNA ([4]; qPCR and immunofluorescence): significantly increased

**Q.** Which results are given for “miR-214-3p inhibitor: inhibitor for miR-214-3p (SEQ ID NO: 2: 5′-ACUGCCUGUCUGUGCCUGCUGU-3′) (ACUGCCUGUCUGUGCCUGCUGU; listed as RNA, chemistry not given here)”?
**A.** increase of apoptotic cells ([5]; 40 nM, p<0.001): 2.6 fold; apoptotic cell death compared to the control group ([5]; transfection): significantly increased; increase of apoptotic cells ([6]; 40 nM, p<0.001): 1.7 fold; apoptotic cell death compared to the control group ([6]; transfection): significantly increased; PCNA expression reduced by cisplatin [1]: further decreased; PCNA expression reduced by paclitaxel [1, 19]: further decreased; expression of the target gene LHX6 [7]: increased; proliferative capability (BrdU incorporation) [2]: inhibit the proliferative capability; proliferative capability reduced by cisplatin (BrdU) [2]: further reduced; proliferative capability reduced by paclitaxel (BrdU) [2]: further reduced; reactive oxygen species [8]: increased; expression of the target gene LHX6 [9]: increased; mitochondrial membrane potential [10]: induced a change; intracellular calcium ions [11]: increased; reactive oxygen species [12]: increased; mitochondrial membrane potential [13]: induced a change; sub-G1 of the cell cycle [14]: increasing; intracellular calcium ions [15]: increased; proliferative capability (BrdU incorporation) [3]: inhibit the proliferative capability; proliferative capability reduced by cisplatin (BrdU) [3]: further reduced; proliferative capability reduced by paclitaxel (BrdU) [3]: further reduced; PCNA expression reduced by cisplatin [4]: further decreased; PCNA expression reduced by paclitaxel [4, 19]: further decreased; cell migration [16]: reduced; cell migration [17]: reduced; sub-G1 of the cell cycle [18]: increasing
